This is an account of results in patent US5095139A (Ciba-Geigy Corporation, priority 1986, dated 1992).

A short description of one data set: solubility. The class given is physicochemical.
Data set [1] deals with pronase from Streptomyces griseus. Put plainly: pronase treatment. The protocol: The enzymatic hydrolysis of rhizocticine B (L-Val-L-Arg-L-APPA) to rhizocticine A with removal of valine is effected with pronase from Streptomyces griseus, a peptidase of low specificity. The enzymatic degradation of L-Val-L-Arg-L-APPA is effected quantitatively within a few minutes (approximately 15 minutes), the antifungal activity being obtained. By removing the N-terminal amino acid valine, rhizocticine A is formed. The hydrolysis is confirmed by thin-layer chromatography and ion-exchanger/amino acid analysis.

The next data set concerns fungi. Put plainly: antifungal activity of isolated tripeptides. The class given is cell-based. To be noted: isolated by HPLC from rhizocticine B isolates.
In a further data set the test system is pronase. Put plainly: pronase from Streptomyces griseus. To be noted: up to 12 hours.
The subject of a further data set is Saccharomyces cerevisiae. To be noted: cited from earlier work.
The next data set has as its system Candida albicans. To be noted: cited from earlier work.
The test system of a further data set is hyphal fungi. To be noted: cited from earlier work.
In another data set the test system is thermolysin. Put plainly: thermolysin (2 mg/ml) in 0.05N N-ethylmorpholinium acetate, 0.01 M CaCl2 ×6H2 O (pH 7.8). To be noted: 41° C., up to 30 hours.

On to `N=C(N)NCCC[C@H](N)C(=O)N[C@@H](/C=C\CP(=O)(O)O)C(=O)O` [rhizocticine A, L-Arg-L-APPA], for which the Solubility entry is “readily soluble” in “solubility” (35% ethanol); “insoluble” in the data set “solubility” (apolar solvents); “moderately soluble” in the data set “solubility” (ethanol and higher alcohols); “readily soluble” in the data set “solubility” (water). Besides, the “loss of activity of the dipeptide formed” value in data set [1] (after 12 hours of pronase treatment) is reported as “no loss of activity”. The “behaviour during the pronase treatment” value in data set [1] (native compound) was “remains inert”.
In the case of `CC[C@H](C)[C@H](N)C(=O)N[C@@H](CCCNC(=N)N)C(=O)N[C@@H](/C=C\CP(=O)(O)O)C(=O)O` [rhizocticine C, L-Ile-L-Arg-L-APPA], in the data set with fungi, the antifungal activity result is “antifungal”.
Same read-out and setting: as for `CC(C)C[C@H](N)C(=O)N[C@@H](CCCNC(=N)N)C(=O)N[C@@H](/C=C\CP(=O)(O)O)C(=O)O` [rhizocticine D, L-Leu-L-Arg-L-APPA], the entry is “antifungal”.
Take `N[C@@H](/C=C\CP(=O)(O)O)C(=O)O` (stereo in doubt) [L-APPA, L-2-amino-5-phosphono-3-cis-pentenoic acid]: the Solubility entry in the data set “solubility” (35% ethanol) is “readily soluble”; in “solubility” (apolar solvents), “insoluble”; in “solubility” (ethanol and higher alcohols) it was “moderately soluble”; in “solubility” (water), “readily soluble”.
Take `CC(C)[C@H](N)C(=O)N[C@@H](CCCNC(=N)N)C(=O)N[C@@H](/C=C\CP(=O)(O)O)C(=O)O` [rhizocticine B, L-Val-L-Arg-L-APPA]: the Solubility result in the data set “solubility” (35% ethanol) was “readily soluble”; in the data set “solubility” (apolar solvents), “insoluble”; in the data set “solubility” (ethanol and higher alcohols) it was “moderately soluble”; in “solubility” (water), “readily soluble”. Further, the “time for quantitative enzymatic degradation (removal of N-terminal valine)” value in data set [1] (pronase) was “approximately 15 minutes”.
For the compound L-Val-L-Arg-L-APPA, in the data set on pronase, the cleaved bond result was “L-Val-L-Arg, approximately 15 minutes”.
Regarding `C[C@H](N)C(=O)N[C@@H](C[C@@H]1CCC(=O)[C@@H]2O[C@H]12)C(=O)O` [Bacilysin, N-alanyl-3-(2,3-epoxycyclohexanon-4-yl)-alanine], the inhibition entry in the data set on Saccharomyces cerevisiae and with Candida albicans was “inhibits” throughout. In addition, in the data set with hyphal fungi, the action entry is on record as “virtually no action”.
In the case of L-Arg-L-APPA, the cleaved bond result in the data set on thermolysin is “L-Arg-L-APPA”. Besides, the not cleaved result with pronase is reported as “remains inert during the pronase treatment”.
